Each structure is given as a SMILES string.

In assay [1] the test system is isolated proximal colon rat strips. Nature of the assay: Reduction of spontaneous contractile activity of isolated proximal colon rat strips (in vitro). In kind it is cell-based. To be noted: Krebs-Ringer, 37° C., read-out: EC50, on colon (concentration effective to reduce by 50% the contractile activity observed in controls). The source says:
In particular, their effects in reducing colon spontaneous motility have been observed in in vitro normalized pharmacological tests and has been confirmed in the animal in vivo.
In the in vitro tests, the capability of different concentrations of the phenylethanolaminomethyltetralins of the present invention to reduce, under particular normalised conditions, the spontaneous contractile activity of isolated proximal colon rat strips has been evaluated.
Not fasted male rats weighing 250-300 g are sacrificed. The proximal part of the colon, approximately a 2 to 3 cm segment, is removed and suspended in a 20-ml organ bath containing oxygenated (5% CO2, 95% O2) Krebs-Ringer solution with the following mM composition: NaCl 118.4; KCl 4.7; CaCl2 2.45; MgSO4 1.16; NaH2 PO4 3.7; glucose 5.6; NaHCO3 30.9, kept at a constant temperature of 37° C. The colon strips submitted to a 1 g traction spontaneously contract. The test compounds are added thereto after stabilisation of the preparation (2h).
The EC50, i.e. the concentration which is effective to reduce by 50% the contractile activity observed in controls, is determined.

A further assay concerns isolated rat uterus. Nature of the assay: Effect on spontaneous uterus motility, same general method on isolated rat uterus (in vitro). In kind it is cell-based. To be noted: for selectivity ratio (EC50 uterus / EC50 colon): colon versus uterus; for EC50: isolated rat uterus, spontaneous motility.

As for `COc1ccc2c(c1)CC(NCC(O)c1cccc(Cl)c1)CC2.Cl` (stereo not drawn) [Example 7 of EP-B-211,721, N-(7-methoxy-1,2,3,4-tetrahydronaphth-2-yl)-2-hydroxy-2-(3-chlorophenyl)ethanamine hydrochloride], the figures for the EC50 (in assay [1]; with isolated rat uterus) were 194 nM and 350 nM, respectively. Moreover, the “selectivity ratio (EC50 uterus / EC50 colon)” value in the assay on isolated rat uterus is on record as “lower than 2”.
On the same counts, the results for `COc1ccc2c(c1)CC(CNCC(O)c1cccc(Cl)c1)CC2.Cl` (stereo not drawn) [Example 4, N-[(7-methoxy-1,2,3,4-tetrahydronaphth-2-yl)methyl]-2-hydroxy-2-(3-chlorophenyl)ethanamine hydrochloride] are 43 nM, 2450 nM and 57.
On the same counts, the results for `Oc1ccc2c(c1)CC(NCC(O)c1cccc(Cl)c1)CC2` (stereo not drawn) [Example 8 of EP-B-211,721] are 110 nM, 110 nM and 1.
Take `O=C(O)C(=O)O.Oc1ccc2c(c1)CC(CNCC(O)c1cccc(Cl)c1)CC2` (stereo not drawn) [Example 10, N-[(7-hydroxy-1,2,3,4-tetrahydronaphth-2-yl)methyl]-2-hydroxy-2-(3-chlorophenyl)ethanamine oxalate]: the EC50 in assay [1] amounted to 7 nM. Besides, in the assay with isolated rat uterus, the “selectivity ratio (EC50 uterus / EC50 colon)” value is “about 7” and the EC50 was 50 nM.
